Consider 73 molecules from PubChem BioAssay AID179 (DTP/NCI, 2004).

The experiment has as its system CEM cells HIV-1 protection, formazan growth assay. In words: NCI AIDS Antiviral Assay. The conditions noted are these: for pIC50: measured here: growth of uninfected CEM cells. The method, boiled down: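 Screen of anti-HIV-1 activity in human CEM cells using a formazan-based growth measurement at five drug concentrations. Hits with 50% or greater protection were repeated, and confirmation required reproducible complete protection.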

Structures are written as SMILES. pEC50, pIC50: −log10 of the molar value. Calls of active or inactive are those of the source.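 Rule for the calls: active = compounds giving half or more protection of infected cells from virus-caused growth loss, again on retest; inactive = the rest.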 Bounds are passed on as bounds.

Turning to `COC(=O)C1(Cc2ccc3c(c2)CCC3)Cc2ccc3c(c2C1=O)CCC3` (configuration not stated), the pEC50 was less than 4.70 and the pIC50 was 5.02.

Take `N#CC(C#N)=Cc1cccc([N+](=O)[O-])c1`: the pEC50 is less than 3.75 and the pIC50 is 4.81.

For the molecule `CCOc1ccc(N=C2NC(=O)C(CC(=O)Nc3ccc(Cl)cc3Cl)S2)cc1` (configuration not stated), the pEC50 is less than 3.67 and the pIC50 is less than 3.67.

Consider `CC1=C(C(=O)NCc2ccccc2)C(c2ccc(N(C)C)cc2)C(C(=O)NCc2ccccc2)=C(C)N1`, for which the pEC50 is less than 4.14 and the pIC50 is less than 4.14.

With `NC(Cc1ccc(N(CCCl)CCCl)cc1)C(=O)O` (configuration not stated), the pEC50 is less than 3.70 and the pIC50 is 4.92.

For `CCNC(=O)Cc1nc2c(=O)[nH]cnc2n1C1OC(CO)C(O)C1O` (configuration not stated), the pEC50 was less than 3.70 and the negative-log IC50 (pIC50) was less than 3.70.

On to `CCOC(C(=O)N(C)CCN(C)CCc1ccccc1)(c1ccccc1)c1ccccc1`, for which the pEC50 is less than 3.70 and the pIC50 is 4.43.

Turning to `COc1ccc(Cc2cc(Cc3ccc(OC)cc3)cc(Cc3ccc(OC)cc3)c2)cc1`, the pEC50 is less than 4.00 and the pIC50 is less than 4.00.

With `CCCCNC(=S)N/N=C/c1cccc(C)n1`, the pEC50 was less than 3.70 and the pIC50 was 4.92.

Turning to `COc1cc(CNc2ccc(C(C)C)cc2)cc(OC)c1OC`, the pEC50 is less than 4.13 and the pIC50 is 4.50.

Turning to `CN(C)c1ccc(/C=N/n2c(-c3ccccc3)nc3ccccc3c2=O)cc1`, the pEC50 was less than 3.70 and the pIC50 is 4.47.

With `Cc1cn(C2CC(N=[N+]=[N-])C(COC(=O)CCCCCCCCCCBr)O2)c(=O)[nH]c1=O` (configuration not stated), the result was active and the pIC50 was 3.96.

For the molecule `C=C=C(C)C(=O)N(C(C)C)C(C)C`, the pEC50 is less than 3.70 and the pIC50 is less than 3.70.

On to `N#CC(c1ccccn1)c1nc2ccccc2[nH]1` (configuration not stated), for which the pEC50 is less than 5.07 and the pIC50 is less than 5.07.

On to `COc1cc2c(cc1OC)C(Cc1ccc(Oc3cc(CC4c5cc(OC)c(OC)cc5CCN4C)ccc3O)cc1)N(C)CC2` (configuration not stated), for which the outcome was inactive.

With `CC(=O)O[C@]1(C(C)=O)CC[C@H]2[C@@H]3C=C(Cl)C4=CC(=O)[C@@H]5C[C@@H]5[C@]4(C)[C@H]3CC[C@@]21C`, the pEC50 is less than 3.70 and the pIC50 is less than 3.70.

Take `O=c1ccc2nc3cc(Br)ccc3sc-2c1`: the pEC50 is less than 4.61 and the pIC50 was less than 4.61.

Consider `Cc1ccc(C)n1-n1c(Cc2ccc(Cl)cc2)n[nH]c1=O`, for which the pEC50 was less than 3.70 and the pIC50 was 4.30.

As for `CCOC(=O)c1ccc(Nc2nc3ccccc3nc2C(=O)OCC)cc1`, the pEC50 was less than 3.70 and the pIC50 is less than 3.70.

As for `O=c1c2cc(S(=O)(=O)Nc3ccccc3)ccc2ncn1NS(=O)(=O)c1ccccc1`, the pEC50 was less than 4.00 and the pIC50 was 4.23.

Take `CCOC(=O)c1c(N2CCCC2)ncn(-c2ccccc2)c1=S`: the pEC50 is less than 3.70 and the pIC50 was less than 3.70.

On to `COc1cc(O)c(C(=O)C2Cc3ccccc32)c(OC)c1` (configuration not stated), for which the outcome was inactive.

For the molecule `O=C1CSC(/C(=C\c2ccc(Cl)cc2)c2nc3ccccc3[nH]2)=N1`, the pEC50 is less than 5.00 and the pIC50 is less than 5.00.

As for `CC(C)N(C(=O)c1ccc(NCc2cc(O)ccc2O)cc1)C(C)C`, the pEC50 is less than 3.70 and the negative logarithm of the IC50 (pIC50) is 4.90.

On to `CCOC(=O)NC(=O)c1cn(CC(=O)NCC(=O)NCC(=O)N2CCN(CCn3c(C)nc(C(N)=O)c3N)CC2)c(=O)[nH]c1=O`, for which the result was inactive.

Consider `COc1cc2c(cc1OC)C1Cc3ccc(OC)c(OC)c3C[N+]1([O-])CC2` (configuration not stated), for which the pEC50 is less than 3.87 and the pIC50 was less than 3.87.

On to `Cc1nn(C(=O)c2ccccc2O)c2c1C(c1ccccc1)SC(N)=N2` (configuration not stated), for which the pEC50 was less than 5.70 and the pIC50 was 6.38.

Take `COc1ccc2c(c1OC)C(=O)OC2c1c2c(c(OC)c3c1OCO3)C(C1OC(=O)c3c1ccc(OC)c3OC)N(C)CC2` (configuration not stated): the outcome was inactive.

For the molecule `Cc1c(-c2ccccc2)[nH]n(C2=NCCN2)c1=O`, the pEC50 was less than 3.70 and the pIC50 is 3.92.

For the molecule `CC(C)(C)c1ccccc1NS(=O)(=O)c1ccccc1`, the result was inactive.

Consider `COc1ccc(/C=C2\CCC(C)C3=C(c4ccc(OC)c(OC)c4)C(C#N)=C(N)OC32)cc1OC` (configuration not stated), for which the pEC50 is less than 3.70 and the pIC50 was 5.08.

For `COc1cccc(N2C(Cl)C(=O)C2c2c[nH]c3ccccc23)c1` (configuration not stated), the pEC50 was less than 4.10 and the pIC50 is less than 4.10.

With `S=C1NC2=C(CSC/C2=C\c2cccc(Br)c2)C(c2cccc(Br)c2)N1` (configuration not stated), the pEC50 is less than 3.70 and the pIC50 is 4.71.

`CC1OC(=O)C2CC3CCCCC3C(/C=C/C3CCCC(C)N3C)C12` (configuration not stated): the result was inactive.

As to `COCCOC(=O)NCn1cc(-c2ccccc2)nn1`, the pEC50 was less than 3.70 and the pIC50 was less than 3.70.

For `FC(F)(F)c1ccc(C2=N/S(c3ccccc3)=N\C(c3ccc(C(F)(F)F)cc3)=N/S(c3ccccc3)=N\2)cc1` (configuration not stated), the pEC50 is less than 4.30 and the pIC50 was less than 4.30.

For `COc1ccc2nc3ccccc3c(NCCCCN(C)CCCl)c2c1`, the pEC50 was less than 5.70 and the pIC50 is 6.82.

Consider `Cc1cc2c3c(c1)CCCN3CCC2`, for which the pEC50 is less than 3.70 and the pIC50 is less than 3.70.

`CC(/C=N\NC(=S)N(C)C)=N/NC(=S)N(C)C`: the pEC50 was less than 5.70 and the pIC50 is 6.46.

For `CC(CN(C)C)OC(=O)c1cc2ccccc2n1-c1ccccc1` (configuration not stated), the pEC50 was less than 3.70 and the pIC50 was 4.04.

`O=c1ccs[nH]1`: the pEC50 was less than 3.17 and the pIC50 was 5.19.

In the case of `O=C(NCCCCCCNC(=O)NS(=O)(=O)c1ccccc1)NS(=O)(=O)c1ccccc1`, the pEC50 was less than 3.70 and the pIC50 was less than 3.70.

As to `Cc1cc(O)c(C(=O)CC2(O)C(=O)Nc3c(Cl)cc(Cl)cc32)c(=O)o1` (configuration not stated), the pEC50 is less than 3.33 and the pIC50 was less than 3.33.

Turning to `CCc1ccc(/C=C/C(=O)C2CN(CC)CCC2(O)/C=C/c2ccc(CC)cc2)cc1` (configuration not stated), the pEC50 is less than 3.70 and the pIC50 is 5.36.

For the molecule `CC1(C)Cc2ccccc2C(C)(Cl)C(=O)N1` (configuration not stated), the pEC50 was 3.72 and the pIC50 was less than 3.70.

In the case of `COc1ccc2c(c1)-c1c(c3ccccc3n1CCN1CCOCC1)CC2`, the result was inactive.

Regarding `N#Cc1nc(CCC(C(=O)O)N2C(=O)c3ccccc3C2=O)oc1N` (configuration not stated), the pEC50 was less than 4.00 and the pIC50 was less than 4.00.

For the molecule `CC12CCC3[C@@H](CC3(C)C)C(O)(CCC1=O)C2` (some centres not stated), the pEC50 was less than 3.70 and the pIC50 is less than 3.70.

Turning to `COc1cc(OC)c2c(O)c3c(cc2c1)CC(C)(C)CC3=O`, the pEC50 was less than 5.70 and the negative logarithm of the IC50 (pIC50) was 5.86.

In the case of `CC(=O)N1CC[N+](C)(CCCCN2c3ccccc3Sc3cc(N=[N+]=[N-])ccc32)CC1`, the pEC50 was less than 3.70 and the pIC50 was 4.09.

As for `Cc1sc2c(c1C)c(=O)[nH]c1c(C#N)c(-c3ccc(Cl)cc3)cn12`, the pEC50 is 3.73 and the pIC50 is less than 3.70.

`O=C1c2ccccc2C(=O)c2sc(Nc3ccc([N+](=O)[O-])cc3)nc21`: the pEC50 was less than 4.97 and the negative logarithm of the IC50 (pIC50) was less than 4.97.

As for `CN(C)c1ccc(/C=C(\NC(=O)c2ccccc2)C(=O)Nc2ccccc2C(=O)NN2C(=O)CSC2c2ccc(N(C)C)cc2)cc1` (configuration not stated), the pEC50 was less than 4.30 and the pIC50 is less than 4.30.

`O=C1C2CC3OC3CC2C(=O)N1CCN1C(=O)C2CC3OC3CC2C1=O` (configuration not stated): the pEC50 was less than 4.98 and the pIC50 is less than 4.98.

As for `Cc1c(Cl)c(=O)oc2c3c(ccc12)OC(C)(C)[C@H](OC(=O)C12CCC(C)(C(=O)O1)C2(C)C)[C@@H]3OC(=O)C12CCC(C)(C(=O)O1)C2(C)C` (some centres not stated), the pEC50 is 6.55 and the pIC50 is 5.25.

Regarding `BrC(/C=N/Nc1nnc(-c2ccccc2)c(-c2ccccc2)n1)C(Br)c1ccccc1` (configuration not stated), the pEC50 was less than 4.87 and the pIC50 was less than 4.87.

Consider `O=C(O)C(NCc1ccccc1)C(NCc1ccccc1)C(=O)O` (configuration not stated), for which the pEC50 was less than 3.70 and the pIC50 was less than 3.70.

Turning to `CCC(=O)N(O)C(C)(C)C`, the pEC50 is less than 2.76 and the pIC50 is less than 2.76.

As for `C#CCC(O)c1ccccc1C(O)CC#C` (configuration not stated), the outcome was inactive.

As to `SCCSCCCSCCS`, the pEC50 is less than 4.64 and the pIC50 was less than 4.64.

Take `Nc1nnnn1-c1ccccc1`: the pEC50 is less than 3.70 and the pIC50 was less than 3.70.

Turning to `CCCCCCCCCCCCCCCC(=O)OCC1OC(OC)C2NP(=O)(N(CCCl)CCCl)OC1C2O` (configuration not stated), the pEC50 was less than 5.07 and the pIC50 was 6.81.

Regarding `O=C(c1cccs1)N(C(=O)N1CCCCC1)c1ccccc1`, the pEC50 is less than 3.70 and the pIC50 was 3.95.

In the case of `S=C(N/N=C/c1ccccc1)Nc1ccc(Oc2ccc(NC(=S)N/N=C/c3ccccc3)cc2)cc1`, the pEC50 was 5.05 and the pIC50 is 4.93.

Turning to `COc1ccc(-n2cccc2)cc1`, the pEC50 is less than 3.70 and the negative-log IC50 (pIC50) was less than 3.70.

Take `Cc1ccc(S(=O)C[C@](NC(=O)OCc2ccccc2)(Sc2ccccc2)C(F)F)cc1` (some centres not stated): the pEC50 was less than 3.70 and the pIC50 was 4.97.

For `O=C(Cc1ccccc1)c1ccc2[nH]c(=O)oc2c1`, the pEC50 was less than 3.70 and the pIC50 was 3.99.

As to `O=c1[nH]cnc2c1sc1nc3ccccc3n12`, the pEC50 was less than 3.70 and the pIC50 was 3.85.

With `N=C(N)SCC1OCOC1C1OCOC1CSC(=N)N` (configuration not stated), the pEC50 is less than 3.11 and the pIC50 is less than 3.11.

Regarding `NC(=S)N/N=C/c1cc2c3c(c1)CCCN3CCC2`, the pEC50 is less than 3.70 and the pIC50 is less than 3.70.

For the molecule `CCOC(=O)c1c(C)[nH]c(=S)c(C#N)c1-c1cccc2ccccc12`, the pEC50 is less than 3.70 and the pIC50 is 4.54.

`CCOc1ccc(C(CN2CCOCC2)C(C)=O)cc1OC` (configuration not stated): the pEC50 was less than 3.14 and the pIC50 was 5.71.

As for `O=C(O)CCC1CCc2cccc(OCC(=O)O)c2C1=O` (configuration not stated), the result was inactive.

A word on the pEC50: it is the negative decadic logarithm of the EC50, by convention in mol/L. The term pIC50 denotes the IC50 on a negative log10 scale, so that one unit is a factor of ten. Low values mean a large IC50, high ones a small IC50.
